The results in this text go back to patent US8592419B2, “Ceramides and apoptosis-signaling ligand” (MUSC Foundation for Research Development, priority 2004, dated 2013).

Format in all cases: cell-based, human
One test has as its system Bak. In words: Bak protein level and Bak foci (Western blot, confocal microscopy). The note with it: PPC-1 transfectants, with LCL204 7.5 μM. The protocol: (§1) Immunoblot analysis. Cells were seeded in 60mm plates as described above and treated accordingly. Cells were lifted by gently scraping the plates, washed once with ice cold PBS and then lysed in lysis buffer (PBS, 1% Triton X-100, 10% glycerol) containing protease inhibitors pepstatin A (0.5 μg/ml), leupeptin (0.5 μg/ml), aprotinin (5 μg/ml), and PMSF (100 μg/ml) for 10 minutes on ice. Insoluble material was removed by centrifugation at 14,000 rpm for 15 minutes at 4° C. The supernatants were then supplemented with SDS at a final concentration of 2% and stored at −80° C. Protein concentrations were determined using the DC Protein Assay (BioRad Laboratories; Hercules, CA, USA) according to the manufacturer's instructions. 50 μg of protein per sample (unless otherwise indicated) were separated on NuPAGE 4-12% Bis-Tris gels (Invitrogen; Carlsbad, CA, USA) and transferred to nitrocellulose membranes (BioRad). Following transfer, membranes were blocked for 1 hour at room temperature in Tris-buffered saline (TBS) containing 0.1% Tween-20 and 5% nonfat dry milk and incubated overnight at 4° C. with primary antibody at a dilution of 1:2,000(actin), 1:1,000(cytochrome c, COX IV, Bax, Bak, p53, p38, P-p38), 1:500(P-JNK, JNK), 1:250 (AC, p73), or 1:400(LAMP-1, cathepsin B). Overnight incubations were performed in 5% milk in TBS-Tween. Following overnight incubation, membranes were washed three times for 10 minutes each in TBS-Tween and incubated for 1 hour at room temperature with secondary antibody in 5% milk TBS-Tween at a dilution 1:5,000 (goat anti-mouse IgG) or 1:50,000 (goat anti-rabbit). Membranes were then washed three times more and incubated for 5 minutes at room temperature with Super Signal HRP substrate (Pierce Biotechnology Inc.; Rockford, IL, USA).
Confocal Microscopy and Immunocytochemistry. DU145 cells were grown in 4.3 cm^2 chamber slides (Nalge Nunc) and transfected with YFPmito alone or with the dominant-negative inhibitor of Drp1(K38A) (64) using FuGENE6 (Roche; Indianapolis, IN) according to the manufacturer's instructions using 1 μg of total DNA per chamber. 24 hr after transfection and 30 min prior to treatment with 15 μM LCL204, cells were exposed to zVAD-fmk (50 μM). The slides were fixed with 4% paraformaldehyde for 20 min then permeabilized with 0.2% Triton X-100 for 15 min, followed by blocking with 4% bovine serum albumin for 45 min at RT. Cells were probed with rabbit polyclonal 2-14 anti-Bak antibody (1:5000; BioChem) for 2 hr then stained with goat anti-rabbit Alexa Fluor 543 antibodies (1:250; Molecular Probes) for 45 min. After washing, cells were imaged using the 63x objective of an LSM 510 Zeiss confocal microscope.

Another test deals with p73. The experiment in a line: Immunoblot of p73. As to the method:
as §1
Background: Immunoblotting shows a protein as a band on a membrane.

The test system of a further test is PPC-1/pcDNA3 cells. The experiment in a line: MTS cell viability assay in PPC-1/pcDNA3 cells with kinase inhibitors. The note with it: 20 μM SB-203580, 40 μM SP600125, LCL204 8 hours. As to the method:
MTS cytotoxicity assays for LCL204 treatments. Cell viability was determined using the CellTiter 96 AQueous One Solution Cell Proliferation Assay (Promega; Madison, Wis., USA). 1×10^4 cells per well were seeded in 96-well plates overnight. The next day media was removed and replaced with either 100 μl media with vehicle control or media containing LCL204 at desired concentrations. Assays were carried out according to manufacturer's instruction as previously described (60). For experiments using enzyme inhibitors and LCL204, media was removed and replaced with 50 μl media containing vehicle only or indicated inhibitor. Cells were pretreated 1 hour at 37° C. before adding 50 μl media containing vehicle, inhibitor only, LCL204 only (2× concentration), or a combination. The remainder of the assay was carried out as described above.
Stable transfections. Both CMV-TAM67 and pcDNA3 vectors were from Dr. Michael Birrer (National Cancer Institute; Rockville, Md.). PPC-1 cells (7×10^5) were transfected with 4 μg of DNA in 60 mm dishes using FuGENE6 according to the manufacturer's instructions. Stably transfected clones were selected in 400 μg/mL G418 (Sigma). TAM67 was detected by Western blot analysis using an antibody for c-Jun (Ab-1, Oncogene) as described above.
On the technique in general: Tetrazolium dyes change colour on reduction, which living cells bring about.

For the compound `C[S+]([O-])c1ccc(-c2nc(-c3ccncc3)c(-c3ccc(F)cc3)[nH]2)cc1` (stereo not shown) [SB-203580, reference compound], the “effect of p38 MAPK inhibitor on LCL204-mediated Bak protein levels” value in the test on Bak is reported as “did not appear to block”. The “basal p73 levels, inhibitor alone” value in the test on p73 (PPC-1/pcDNA3 and PPC-1/TAM67 cells, 5 hours) is “lowered basal p73 levels”. The “effect of kinase inhibitor on LCL204-induced p73 induction” value in the test on p73 (PPC-1 transfectants, with LCL204 7.5 μM) is recorded as “blocked the LCL204-induced p73 up-regulation”. Also, the “effect on LCL204 cell killing” value with PPC-1/pcDNA3 cells is reported as “inhibited cell killing to a similar extent”.
